According to patent US11459312B2, “Sulphur substituted 3-oxo-2,3-dihydropyridazine-4-carboxamides” (Bayer Aktiengesellschaft, priority 2017, dated 2022):

Biological target: T1, AHR (Homo sapiens, UniProt P35869)
T1 sequence (P35869 11-848): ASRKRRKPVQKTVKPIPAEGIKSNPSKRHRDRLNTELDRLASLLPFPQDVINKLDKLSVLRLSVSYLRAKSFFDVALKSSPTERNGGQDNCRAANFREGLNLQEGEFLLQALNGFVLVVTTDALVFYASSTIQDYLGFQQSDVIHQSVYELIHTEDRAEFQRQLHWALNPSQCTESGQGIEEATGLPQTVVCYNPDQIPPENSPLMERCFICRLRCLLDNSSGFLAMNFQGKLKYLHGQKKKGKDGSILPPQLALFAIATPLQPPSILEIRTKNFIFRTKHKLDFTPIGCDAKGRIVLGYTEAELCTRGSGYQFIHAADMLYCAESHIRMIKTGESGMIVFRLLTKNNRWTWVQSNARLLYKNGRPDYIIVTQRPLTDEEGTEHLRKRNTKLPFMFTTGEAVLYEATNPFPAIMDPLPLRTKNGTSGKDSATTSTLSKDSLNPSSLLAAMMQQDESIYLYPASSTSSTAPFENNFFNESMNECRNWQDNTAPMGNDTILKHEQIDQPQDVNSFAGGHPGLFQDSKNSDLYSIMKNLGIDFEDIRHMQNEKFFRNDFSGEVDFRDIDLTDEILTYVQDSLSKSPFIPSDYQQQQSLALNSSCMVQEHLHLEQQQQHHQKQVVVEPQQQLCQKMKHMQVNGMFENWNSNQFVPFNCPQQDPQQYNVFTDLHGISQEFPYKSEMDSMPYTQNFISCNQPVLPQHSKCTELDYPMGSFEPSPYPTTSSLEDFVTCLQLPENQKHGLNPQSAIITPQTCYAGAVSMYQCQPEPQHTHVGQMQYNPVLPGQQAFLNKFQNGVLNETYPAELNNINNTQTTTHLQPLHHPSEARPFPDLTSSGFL
Experiment: In vitro assay 1: AHR-luc transactivation assay, antagonism in human cell line (U87 glioblastoma cells, kynurenic acid prestimulated)
Format: cell-based
Parameters: U87 glioblastoma cells (ATCC) endogenously expressing AHR; host or cells: U87 glioblastoma cells, stably transfected with DRE-firefly luciferase and renilla reporter constructs only
Conditions: firefly luciferase DRE reporter, 150 μM kynurenic acid, 20 hours, read-out: Assay 1: AHR-luc Hum Antagonism IC50
Description: Transactivation Assay in Human Cell Line (In Vitro Assays 1 and 2)
Transactivation assays were carried out in U87 glioblastoma cells (ATCC) endogenously expressing AHR. In addition the cells were stably transfected with an AHR inducible firefly luciferase reporter gene construct that carried AHR-binding sites (DRE) in its promoter and a renilla reporter gene construct with constitutively active promoter. Kynurenic acid is an endogenous AHR activating ligand and was used to prestimulate test cells prior to testing the antagonistic properties of compounds.
In Vitro Assay 1: Antagonism in Human Cell Line
Cells in medium (tryptophan free RPMI, 1% FCS, 2 mM Glutamine) supplemented with 150 μM kynurenic acid were grown for 20 hours in absence (negative control) or presence of increasing concentrations of test compounds (typical dilutions: […], 0.25 nmol/L, 0.89 nmol/L; 3.1 nmol/L, 11 nmol/L, 38 nmol/L, 130 nmol/L, 470 nmol/L, 1.6 μmol/L, 5.7 μmol/L and 20 μmol/L in duplicates). As positive inhibition control cells supplemented with 150 μM kynurenic acid were incubated in presence of 5 μM Staurosporin. Normalization was done by positive and negative controls.
Firefly luciferase and Renilla activity was determined by the DualGlo Luciferase Assay System (Promega, #2920). Renilla activity was used to assess toxic effects of compounds.

IC50 [nM] | Compound
843 | CS(=N)(=O)CCNC(=O)c1cc(-c2ccc(Cl)cc2)nn(-c2cccc(F)c2)c1=O (single isomer, unassigned) [Example 53, 6-(4-Chlorophenyl)-2-(3-fluorophenyl)-N-[2-(S-methylsulfonimidoyl)ethyl]-3-oxo-2,3-dihydropyridazine-4-carboxamide]
40.2 | C[C@@H](C[S+](C)[O-])NC(=O)c1cc(-c2ccc(Cl)cc2)nn(-c2cccc(F)c2)c1=O (single isomer, unassigned) [Example 4]
103 | N=S1(=O)C[C@H](O)[C@H](NC(=O)c2cc(-c3ccc(Cl)cc3)nn(-c3cccc(F)c3)c2=O)C1 (single isomer, unassigned) [Example 46, 6-(4-chlorophenyl)-2-(3-fluorophenyl)-N-[(cis)-4-hydroxy-1-imino-1-oxidotetrahydro-1H-1lambda4-thiophen-3-yl]-3-oxo-2,3-dihydropyridazine-4-carboxamide]
140 | C[C@@H](CS(C)(=N)=O)NC(=O)c1cc(-c2ccc(Cl)cc2)nn(-c2cccc(F)c2)c1=O (single isomer, unassigned) [Example 8]
54.3 | O=C(N[C@@H]1CS(=O)(=O)C[C@@H]1O)c1cc(-c2ccc(C(F)(F)F)nc2)nn(-c2cccc(F)c2)c1=O (single isomer, unassigned) [Example 20, (+)-2-(3-fluorophenyl)-N-[(cis)-4-hydroxy-1,1-dioxidotetrahydro-thiophen-3-yl]-3-oxo-6-[6-(trifluoromethyl)pyridin-3-yl]-2,3-dihydropyridazine-4-carboxamide]
41.6 | Cn1cc(-n2nc(-c3ccc(C(F)(F)F)cc3)cc(C(=O)N[C@@H]3C[S+]([O-])C[C@@H]3O)c2=O)cn1 (relative stereo) [Example 32, N-[(cis)-4-hydroxy-1-oxidotetrahydro-thiophen-3-yl]-2-(1-methyl-1H-pyrazol-4-yl)-3-oxo-6-[4-(trifluoromethyl)phenyl]-2,3-dihydropyridazine-4-carboxamide]
93.5 | O=C(N[C@@H]1C[S+]([O-])C[C@@H]1O)c1cc(-c2ccc(Cl)cc2)nn(-c2cccc(F)c2)c1=O (single isomer, unassigned; (+)) [Example 27, (+)-6-(4-chlorophenyl)-2-(3-fluorophenyl)-N-[(cis)-4-hydroxy-1-oxidotetrahydro-thiophen-3-yl]-3-oxo-2,3-dihydropyridazine-4-carboxamide]
41.4 | C[C@@H](C[S+](C)[O-])NC(=O)c1cc(-c2ccc(C(F)(F)F)cc2)nn(-c2cnn(C)c2)c1=O (single isomer, unassigned) [Example 25]
145 | O=C(N[C@@H]1C[S+]([O-])C[C@@H]1O)c1cc(-c2ccc(Cl)cc2)nn(-c2cccc(F)c2)c1=O (single isomer, unassigned; (+)) [Example 31, (+)-6-(4-chlorophenyl)-2-(3-fluorophenyl)-N-[(cis)-4-hydroxy-1-oxidotetrahydro-thiophen-3-yl]-3-oxo-2,3-dihydropyridazine-4-carboxamide]
65.3 | O=C(N[C@H]1CS(=O)(=O)C[C@H]1O)c1cc(-c2ccc(Cl)cc2)nn(-c2cccc(F)c2)c1=O (single isomer, unassigned) [Example 56, 6-(4-Chlorophenyl)-2-(3-fluorophenyl)-N-[(cis)-4-hydroxy-1,1-dioxidotetrahydrothiophen-3-yl]-3-oxo-2,3-dihydropyridazine-4-carboxamide]
3.46 | O=C(N[C@@H]1CS(=O)(=O)C[C@@H]1O)c1cc(-c2ccc(C(F)(F)F)cc2)nn(-c2cnsc2)c1=O (single isomer, unassigned) [Example 11, (−)-N-[(cis)-4-hydroxy-1,1-dioxidotetrahydro-thiophen-3-yl]-3-oxo-2-(1,2-thiazol-4-yl)-6-[4-(trifluoromethyl)phenyl]-2,3-dihydropyridazine-4-carboxamide]
